Read-outs that look alike come from different tables or passages of the source.
Key:
[1] = Metabolism stability test; assay type: in vitro ADME, human; details: 2 μmol/L of test compound; 37° C., 30 minutes
Method: Test Example 5: Metabolism Stability Test
A reaction was performed (oxidative reaction) at 37° C. for 0 minute or 30 minutes in the presence of 1 mmol/L NADPH in 0.2 mL of a buffer (50 mmol/L Tris-HCl pH 7.4, 150 mmol/L potassium chloride, 10 mmol/L magnesium chloride) containing 0.5 mg protein/mL of human liver microsomes. After the reaction, 50 μL of the reaction solution was added to 100 μL of a methanol/acetonitrile=1/1 (v/v), mixed and centrifuged at 3000 rpm for 15 minutes. The compound used in the present invention in the supernatant was quantified by LC/MS/MS or Solid Phase Extraction (SPE)/MS, and a remaining amount of the compound used in the present invention after the reaction was calculated, letting a compound amount at 0 minute reaction time to be 100%. Hydrolysis reaction was performed in the absence of NADPH and glucuronidation reaction was in the presence of 5 mM UDP-glucuronic acid in place of NADPH, followed by similar operations.

red blood cells = experiment: Light hemolysis test; assay type: cell-based, sheep; details: UV-irradiation 290 to 400 nm; 0.0008 to 0.1 w/v %
Method: Test Example 12: Light Hemolysis Test
The compound used in the present invention was dissolved at target concentrations and was mixed with a 2.5 v/v % suspension of red blood cells prepared from a defibrinated blood of sheep on a microplate at concentrations of 0.0008 to 0.1 w/v %. The mixtures were exposed to […] of UV-irradiation within a range of wavelength 290 to 400 nm, UVA and UVB using ultra violet fluorescent lamps, GL20SE and FL20S-BLB lamps manufactured by Sankyo Denki Co., Ltd. and Panasonic Corporation, respectively. After the completion of the irradiation, the mixtures were centrifuged, and a supernatant of the mixture was collected and was located on a microplate. The phototoxicity was assessed by measuring an absorbance at wavelength of 540 nm and 630 nm in the supernatant. The absorbance data at wavelength of 540 nm and 630 nm were used as indicators of biomembrane damage (photohemolysis %) and hyperoxidation of lipid membrane (methemoglobin formation), respectively. The criteria of phototoxicity was as follows; It was judged to be non-phototoxic (−) when the photohemolysis %<10 and the maximal change in the absorbance at 630 nm (ΔOD)<0.05 were observed. It was judged to be […] when the photohemolysis was more than 10% and the maximal change in the absorbance at 630 nm (ΔOD) was more than 0.05.

influenza virus = assay type: in vivo, human; details: 20 to <65 years old
[2] = assay type: in vivo, human; details: Compound II-6 single 40 or 80 mg; Oseltamivir 75 mg twice a day for 5 days
From the text: (4) Incidence of side effects
(4) Incidence of Side Effects
The number of side-effect episodes and the number of patients with side effect were counted for each administration group.

**Q.** With O=C1c2c(O)c(=O)ccn2N([C@@H]2c3ccccc3SCc3c2ccc(F)c3F)[C@@H]2COCCN12 [III-2] as the molecule, how does the “remaining rate after reaction with human liver microsomes (printed: % inhibition)” value [1] read?
**A.** The value was 90.1%.

**Q.** What about the phototoxicity (red blood cells) of the same molecule?
**A.** The phototoxicity was “(−) (It was judged to be non-phototoxic (−) when the photohemolysis %<10 and the maximal change in the absorbance at 630 nm (ΔOD)<0.05 were observed)”.

**Q.** Which results are given for CCOC(=O)C1=C[C@@H](OC(CC)CC)[C@H](NC(C)=O)[C@@H](N)C1 [Oseltamivir, reference compound]?
**A.** Amount of change in virus titer from baseline, mean (influenza virus; Day 2 (24 hours later)): −2.51 log10 [TCID50/mL]; Proportion of patients having a positive influenza virus titer (influenza virus; Day 2 (24 hours later)): 91.0%; Amount of change in virus titer from baseline, mean (influenza virus; Day 3 (48 hours later)): −4.20 log10 [TCID50/mL]; Proportion of patients having a positive influenza virus titer (influenza virus; Day 3 (48 hours later)): 57.3%; Amount of change in virus titer from baseline, mean (influenza virus; Day 4 (72 hours later)): −4.63 log10 [TCID50/mL]; Proportion of patients having a positive influenza virus titer (influenza virus; Day 4 (72 hours later)): 27.6%; Amount of change in virus titer from baseline, mean (influenza virus; Day 5 (96 hours later)): −4.98 log10 [TCID50/mL]; Proportion of patients having a positive influenza virus titer (influenza virus; Day 5 (96 hours later)): 20.9%; Amount of change in virus titer from baseline, mean (influenza virus; Day 6 (120 hours later)): −4.85 log10 [TCID50/mL]; Proportion of patients having a positive influenza virus titer (influenza virus; Day 6 (120 hours later)): 9.0%; Amount of change in virus titer from baseline, mean (influenza virus; Day 9 (192 hours later)): −5.22 log10 [TCID50/mL]; Proportion of patients having a positive influenza virus titer (influenza virus; Day 9 (192 hours later)): 3.2%; Incidence of adverse events the causal relationship of which cannot be denied (patients) [2]: 8.4%
